Data published in patent publication US6395760B1, “Pesticidal 1-arylpyrazoles” (Rhone-Poulenc Inc., priority 1997, dated 2002).

Tests used:
Set-up in all cases: key: ‘X’ means highly active; ‘+’ means moderately active; ‘−’ means low activity
[1] = tested on: Musca domestica; assay: Housefly bait/contact test; type: in vivo; settings: 50 ppm in sugar water bait solution, adult houseflies, mortality after 24 hours
Description: The Housefly Bait/Contact Test About 25 four to six-day-old adult houseflies were anesthetized and placed in a cage with a sugar water bait solution containing the compound. The concentration of the selected compound of formula (I) in the bait solution was 50 ppm.

[2] = tested on: Aphis gossypii; assay: Soil drench test (systemic activity), aphids on cotton plants; type: in vivo; settings: 10.0 ppm soil concentration by weight, aphid counts at 5 DAT vs untreated control
Description: (§1) The Soil Drench Test (Systemic Activity) Cotton and sorghum plants were established in pots. One day prior to treatment, each pot was infested with about 25 aphids of a mixed population. Cotton plants were infested with aphids and sorghum plants were infested with the greenbug. The selected compound of formula (I) was applied to the soil surface in a dilution that delivered the equivalent of 10.0 ppm soil concentration by weight. Aphid counts were obtained at 5 DAT (=days after treatment). The number of aphids on the treated plants was compared to the number of those on the untreated control plants.

[3] = tested on: A. gossypii; assay: Foliar application (contact test) with aphids; type: in vivo, Aphis gossypii; settings: 100 ppm formulation sprayed to runoff on aphid-infested cotton plants, dead aphids counted three days after treatment
Description: Foliar Application (Contact Test) with Aphids Aphid-infested cotton plants were placed on a revolving turntable, and sprayed to runoff with a 100 ppm formulation of the selected compound of formula (I). The treated, A. gossypii-infested plants were held for three days after treatment, after which the dead aphids were counted.

[4] = tested on: Schizaphis graminum; assay: Soil drench test (systemic activity), greenbug on sorghum plants; type: in vivo; settings: 10.0 ppm soil concentration by weight, counts at 5 DAT vs untreated control
Description: as §1

SMILES	Activity on house flies by contact [1]	Systemic activity on aphids [2]	Foliar activity on aphids [3]	Systemic activity on greenbugs [4]
CCNc1c([S+](C)[O-])c(C2(C)OCCO2)nn1-c1c(Cl)cc(C(F)(F)F)cc1Cl (stereo not shown) [Compound 37]	X	X	X	
CNc1c(S(C)(=O)=O)c(C2(C)OCCO2)nn1-c1c(Cl)cc(C(F)(F)F)cc1Cl [Compound 35]	X	X	X	X
COC(C)(OC)c1nn(-c2c(Cl)cc(C(F)(F)F)cc2Cl)c(N)c1SC [Compound 1, 5-amino-1-[2,6-dichloro-4-(trifluoromethyl)phenyl]-3-[(1,1-dimethoxy)ethyl]-4-methylthio-1H-pyrazole]	X	X	+	X
C[S+]([O-])c1c(C2(C)SCC[S+]2[O-])nn(-c2c(Cl)cc(C(F)(F)F)cc2Cl)c1N (stereo not shown) [Compound 20]	X	−	−	−
CSCC1COC(C)(c2nn(-c3c(Cl)cc(C(F)(F)F)cc3Cl)c(N)c2S(C)(=O)=O)O1 (stereo not shown) [Compound 30]	−	X		
CSc1c(C2(C)OCCCO2)nn(-c2c(Cl)cc(C(F)(F)F)cc2Cl)c1N [Compound 12]	X	X	X	X
CC1(c2nn(-c3c(Cl)cc(C(F)(F)F)cc3Cl)c(N)c2S(C)(=O)=O)S(=O)(=O)CCS1(=O)=O [Compound 25, 5-amino-1-[2,6-dichloro-4-(trifluoromethyl)phenyl]-3-(2-methyl-1,1,3,3-tetraoxo-1,3-dithiolane-2-yl)-4-methylsulfonyl-1H-pyrazole]	−	−		
CSc1c(C2(C)SCC[S+]2[O-])nn(-c2c(Cl)cc(C(F)(F)F)cc2Cl)c1N (stereo not shown) [Compound 19]	X	−	X	+
CSc1c(C2(C)OCC(CO)(CO)CO2)nn(-c2c(Cl)cc(C(F)(F)F)cc2Cl)c1N [Compound 14]	−	−	−	
CNc1c([S+](C)[O-])c(C2(C)OCCO2)nn1-c1c(Cl)cc(C(F)(F)F)cc1Cl (racemic) [Compound 39]	−	+		X
CC1(c2nn(-c3c(Cl)cc(C(F)(F)F)cc3Cl)c(N)c2S(C)(=O)=O)OCCO1 [Compound 5]	X	X	X	X
CSCC1COC(C)(c2nn(-c3c(Cl)cc(C(F)(F)F)cc3Cl)c(N)c2SC)O1 (stereo not shown) [Compound 27]	X	X	−	+
CCNc1c(SC)c(C2(C)OCCO2)nn1-c1c(Cl)cc(C(F)(F)F)cc1Cl [Compound 36]	X	X	+	
CC1(c2nn(-c3c(Cl)cc(C(F)(F)F)cc3Cl)c(N)c2S(C)(=O)=O)SCC[S+]1[O-] (stereo not shown) [Compound 21]	X	−	−	−
C[S+]([O-])c1c(C2(C)OCCO2)nn(-c2c(Cl)cc(C(F)(F)F)cc2Cl)c1N (stereo not shown) [Compound 10, 5-amino-1-[2,6-dichloro-4-(trifluoromethyl)phenyl]-3-(2-methyl-1,3-dioxolane-2-yl)-4-methylsulfinyl-1H-pyrazole]	X	X	X	X
CC1(c2nn(-c3c(Cl)cc(C(F)(F)F)cc3Cl)c(N)c2S(C)(=O)=O)OCCS1 (stereo not shown) [Compound 23, 5-amino-1-[2,6-dichloro-4-(trifluoromethyl)phenyl]-3-(2-methyl-1,3-oxathiolane-2-yl)-4-methylsulfonyl-1H-pyrazole]	−	X		
C[S+]([O-])CC1COC(C)(c2nn(-c3c(Cl)cc(C(F)(F)F)cc3Cl)c(N)c2S(C)(=O)=O)O1 (stereo not shown) [Compound 31]	+	X	+	

SMILES	Activity on house flies by contact [1]	Systemic activity on aphids [2]	Foliar activity on aphids [3]	Systemic activity on greenbugs [4]
CSc1c(C2(C)OCC(C)O2)nn(-c2c(Cl)cc(C(F)(F)F)cc2Cl)c1N (stereo not shown) [Compound 4]	X	X	X	X
CC1(c2nn(-c3c(Cl)cc(C(F)(F)F)cc3Cl)c(N)c2S(C)(=O)=O)OCCCO1 [Compound 13]	X		X	X
CSc1c(C2(C)OCC(CO)O2)nn(-c2c(Cl)cc(C(F)(F)F)cc2Cl)c1N (stereo not shown) [Compound 6]	−	+	−	X
CCNc1c(S(C)(=O)=O)c(C2(C)OCCO2)nn1-c1c(Cl)cc(C(F)(F)F)cc1Cl [Compound 34]	X	X	X	X
CC1(c2nn(-c3c(Cl)cc(C(F)(F)F)cc3Cl)c(N)c2S(C)(=O)=O)[S+]([O-])CC[S+]1[O-] (stereo not shown) [Compound 22]	−	X	−	+
CC1(c2nn(-c3c(Cl)cc(C(F)(F)F)cc3Cl)c(N)c2S(C)(=O)=O)OCC(CO)O1 (stereo not shown) [Compound 7]	+	X	X	X
CC1(c2nn(-c3c(Cl)cc(C(F)(F)F)cc3Cl)c(N)c2S(C)(=O)=O)SCCS1 [Compound 17]	X	X	+	X
CSc1c(C2(C)OCC(C[S+](C)[O-])O2)nn(-c2c(Cl)cc(C(F)(F)F)cc2Cl)c1N (stereo not shown) [Compound 28]	X	X	X	−
COC(C)(OC)c1nn(-c2c(Cl)cc(C(F)(F)F)cc2Cl)c(N)c1[S+](C)[O-] (stereo not shown) [Compound 2]	X	+	X	X
C[S+]([O-])c1c(C2(C)SCCS2)nn(-c2c(Cl)cc(C(F)(F)F)cc2Cl)c1N (stereo not shown) [Compound 18]	X	−	X	+
CSc1c(C2(C)OCCO2)nn(-c2c(Cl)cc(C(F)(F)F)cc2Cl)c1N [Compound 3]	X	X	X	X
CC1COC(C)(c2nn(-c3c(Cl)cc(C(F)(F)F)cc3Cl)c(N)c2S(C)(=O)=O)O1 (stereo not shown) [Compound 8]	X	X	X	X
C[S+]([O-])c1c(C2(C)NCCS2)nn(-c2c(Cl)cc(C(F)(F)F)cc2Cl)c1N (stereo not shown) [Compound 15, 5-amino-1-[2,6-dichloro-4-(trifluoromethyl)phenyl]-3-(2-methylthiazolidine-2-yl)-4-methylsulfinyl-1H-pyrazole]	X	X	−	X
C[S+]([O-])CC1COC(C)(c2nn(-c3c(Cl)cc(C(F)(F)F)cc3Cl)c(N)c2[S+](C)[O-])O1 (stereo not shown) [Compound 29]	X	X	X	−
CSc1c(C2(C)SCCS2)nn(-c2c(Cl)cc(C(F)(F)F)cc2Cl)c1N [Compound 16, 5-amino-1-[2,6-dichloro-4-(trifluoromethyl)phenyl]-3-(2-methyl-1,3-dithiolane-2-yl)-4-methylthio-1H-pyrazole]	X	−	+	X
CSc1c(C2(C)OCCS2)nn(-c2c(Cl)cc(C(F)(F)F)cc2Cl)c1N (stereo not shown) [Compound 24]		X		X
CNc1c(SC)c(C2(C)OCCO2)nn1-c1c(Cl)cc(C(F)(F)F)cc1Cl [Compound 38]	X	X		X
